Experimental data: patent US4599414A, “Theophylline derivatives” (Eisai Co., Ltd., priority 1979, dated 1986)
Like-named read-outs stand apart in the source and are kept apart here.

Tested on: contractile response to histamine, terminal ileum
Assay: Antihistaminic action: inhibition of contractile response to histamine (10^-6 M) in isolated terminal ileum
Assay type: cell-based, guinea-pig
Conditions: for inhibition at 1 µM / inhibition at 0.1 µM / inhibition at 0.01 µM: Cavia porcellus
Procedure: The terminal ileum was removed from a starved guinea-pig and set up in an organ bath containing Tyrode solution maintained at 26° C. Contractile tension was recorded isometrically under a tension of 1.5 g with a strain-gauge transducer. After obtaining control response to histamine (10^-6 M), antagonists were added to the bath and allowed to remain in contact with the tissue for 3 minutes. Contractile response to histamine in the presence of the antagonists was recorded and the inhibitory rate was calculated according to the following equation: [formula] The tissue was then washed at 10 min intervals with fresh Tyrode solution. Contractile response to histamine was tested after each wash in order to study the duration of action of the antagonists.

[1] = 0.05 h, antagonist 10^-6 M, 3 min contact, before washing, read-out: Inhibitory rate before washing
[2] = 0.05 h, antagonist 10^-7 M, 3 min contact, before washing, read-out: Inhibitory rate before washing
[3] = 0.05 h, antagonist 10^-8 M, 3 min contact, before washing, read-out: Inhibitory rate before washing
[4] = antagonist 10^-6 M, after 1st washing, read-out: Inhibitory rate after 1st washing
[5] = antagonist 10^-6 M, after 2nd washing, read-out: Inhibitory rate after 2nd washing
[6] = antagonist 10^-7 M, after 1st washing, read-out: Inhibitory rate after 1st washing
[7] = antagonist 10^-8 M, after 1st washing, read-out: Inhibitory rate after 1st washing
[8] = antagonist 10^-8 M, after 2nd washing, read-out: Inhibitory rate after 2nd washing
[9] = antagonist 10^-7 M, after 2nd washing, read-out: Inhibitory rate after 2nd washing
[10] = antagonist 10^-7 M, after 3rd washing, read-out: Inhibitory rate after 3rd washing
[11] = 0.05 h, read-out: Inhibitory rate before washing
[12] = read-out: Inhibitory rate after 1st washing
[13] = read-out: Inhibitory rate after 2nd washing
[14] = antagonist 10^-6 M, after 3rd washing, read-out: Inhibitory rate after 3rd washing
[15] = antagonist 10^-8 M, after 3rd washing, read-out: Inhibitory rate after 3rd washing

Structure (SMILES) | inhibition at 1 µM [1] | inhibition at 0.1 µM [2] | inhibition at 0.01 µM [3] | inhibition at 1 µM [4] | inhibition at 1 µM [5] | inhibition at 0.1 µM [6] | inhibition at 0.01 µM [7] | inhibition at 0.01 µM [8] | inhibition at 0.1 µM [9] | inhibition at 0.1 µM [10] | Inhibitory rate after 4th washing (antagonist 10^-7 M) | Inhibitory rate after 5th washing (antagonist 10^-7 M) | inhibition at 1 µM [14] | inhibition at 0.01 µM [15] | further results
Cn1c(=O)c2c(ncn2CCCN2CCCN(Cc3ccc([N+](=O)[O-])cc3)CC2)n(C)c1=O [(10)] | 100% | 65% | 21% | 46% | 19% | 16% | 12% | 0% |  |  |  |  |  |  | 
CC(CN1c2ccccc2Sc2ccccc21)N(C)C (stereo not drawn) [(1), Promethazine, reference compound] |  | 87% | 37% |  |  | 77% | 44% |  | 56% | 37% |  |  |  |  | 
CN1CCCN(C(c2ccccc2)c2ccc(Cl)cc2)CC1 (stereo not drawn) [(3), Homochlorcyclizine, reference compound] |  |  |  |  |  |  |  |  |  |  | 39% | 25% |  |  | inhibition at 0.01 µM [11]: 13%; inhibition at 0.1 µM [11]: 88%; inhibition at 0.01 µM [12]: 46%; inhibition at 0.1 µM [12]: 84%; inhibition at 0.01 µM [13]: 42%; inhibition at 0.1 µM [13]: 63%; inhibition at 0.1 µM (read-out: Inhibitory rate after 3rd washing): 55%; Inhibitory rate after 6th washing (antagonist 10^-7 M): 33%
Cn1c(=O)c2c(ncn2CCCN2CCCN(Cc3ccc(Cl)cc3)CC2)n(C)c1=O [(5)] | 100% | 100% | 2% | 84% | 65% | 64% | 7% | 4% | 31% | 20% |  | 0% | 58% |  | 
Cn1c(=O)c2c(ncn2CCCN2CCCN(Cc3ccc(Cl)c(Cl)c3)CC2)n(C)c1=O [(8)] |  | 65% | 11% |  |  | 55% | 29% | 19% | 28% | 28% | 20% |  |  |  | 
Cn1c(=O)c2c(ncn2CCCN2CCCN(Cc3ccccc3)CC2)n(C)c1=O [(11)] |  | 78% | 0% |  |  | 10% | 0% |  | 4% | 0% |  |  |  |  | 
Cn1c(=O)c2c(ncn2CCCN2CCCN(c3ccccc3)CC2)n(C)c1=O [(4)] | 100% | 64% | 12% | 10% | 0% | 4% | 0% |  | 0% |  |  |  |  |  | 
Cn1c(=O)c2c(ncn2CCCN2CCCN(Cc3ccc(F)cc3)CC2)n(C)c1=O [(9)] | 100% | 77% | 10% | 27% | 5% | 20% | 7% | 7% | 13% | 5% |  |  | 0% | 1% | 
Cn1c(=O)c2c(ncn2CCCN2CCCN(Cc3ccc(Cl)cc3Cl)CC2)n(C)c1=O [(7)] | 96% | 78% | 6% | 100% | 100% | 59% | 42% | 46% | 52% | 30% |  |  | 100% | 46% | Inhibitory rate after 4th washing (antagonist 10^-6 M): 83%; Inhibitory rate after 5th washing (antagonist 10^-6 M): 87%; Inhibitory rate after 6th washing (antagonist 10^-6 M): 85%; Inhibitory rate after 5th washing (antagonist 10^-8 M): 32%; Inhibitory rate after 6th washing (antagonist 10^-8 M): 18%; Inhibitory rate after 7th washing (antagonist 10^-8 M): 14%
Cn1c(=O)c2c(ncn2CCCN2CCCN(Cc3ccccc3Cl)CC2)n(C)c1=O [(6)] | 100% | 80% | 14% | 100% |  | 73% | 14% | 14% | 58% | 47% | 38% | 29% |  | 6% | Inhibitory rate after 6th washing (antagonist 10^-7 M): 29%; Inhibitory rate after 7th washing (antagonist 10^-7 M): 20%
